Assay results: ChEMBL document CHEMBL1201862, “PubChem BioAssay data set” (2004)
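Cells were grown in 96-well plates and exposed to each compound for 48 hours at five concentrations; endpoints were interpolated linearly between bracketing concentrations, or set to the highest concentration if not reached. GI50 marks 50% less growth.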 The source made the active and inactive calls. Rule as the data show it: active = GI50 up to about 1.1 µM and inactive = higher.

Assays:
Assay in all cases: growth of human tumour cells (NCI), 48 h
LOX IMVI = test system: LOX IMVI
DLD-1 = test system: DLD-1
XF498 = test system: XF498
K562 = test system: K562
SN12C = test system: SN12C
TK-10 = test system: TK-10
HCC 2998 = test system: HCC 2998
NCI-H23 = test system: NCI-H23
OVCAR-3 = test system: OVCAR-3
OVCAR-8 = test system: OVCAR-8
SK-OV-3 = test system: SK-OV-3
HCT-116 = test system: HCT-116
OVCAR-5 = test system: OVCAR-5
SNB-78 = test system: SNB-78
HT-29 = test system: HT-29
DMS-114 = test system: DMS-114
HL-60 = test system: HL-60
HOP-62 = test system: HOP-62
UO-31 = test system: UO-31
NCI-H226 = test system: NCI-H226
RPMI-8226 = test system: RPMI-8226
HCT-15 = test system: HCT-15
OVCAR-4 = test system: OVCAR-4
NCI-H522 = test system: NCI-H522
A549 = test system: A549
IGROV-1 = test system: IGROV-1
U-251 = test system: U-251
CAKI-1 = test system: CAKI-1
SF-295 = test system: SF-295
SK-MEL-5 = test system: SK-MEL-5
KM-20L2 = test system: KM-20L2
UACC-257 = test system: UACC-257
786-0 = test system: 786-0
SF-539 = test system: SF-539
SNB-19 = test system: SNB-19
SR = test system: SR
SF-268 = test system: SF-268
DMS-273 = test system: DMS-273
COLO 205 = test system: COLO 205
UACC-62 = test system: UACC-62
SK-MEL-2 = test system: SK-MEL-2
SNB-75 = test system: SNB-75
EKVX = test system: EKVX
M14 = test system: M14
KM12 = test system: KM12
A498 = test system: A498
SW-620 = test system: SW-620
MOLT-4 = test system: MOLT-4
M19-MEL = test system: M19-MEL
NCI-H460 = test system: NCI-H460
ACHN = test system: ACHN
SK-MEL-28 = test system: SK-MEL-28
LXFL 529 = test system: LXFL 529
CCRF-CEM = test system: CCRF-CEM
PC-3 = test system: PC-3
Malme-3M = test system: Malme-3M
Hs-578T = test system: Hs-578T
NCI/ADR-RES = test system: NCI/ADR-RES
MCF7 = test system: MCF7
DU-145 = test system: DU-145
MDA-N = test system: MDA-N
T47D = test system: T47D
HOP-92 = test system: HOP-92
BT-549 = test system: BT-549
RXF 393 = test system: RXF 393
MDA-MB-435 = test system: MDA-MB-435
MDA-MB-231 = test system: MDA-MB-231

Measured: GI50

[N-]=[N+]=Nc1ccccc1Oc1ccccc1
inactive: LOX IMVI > 100 µM | DLD-1 > 100 µM | XF498 > 100 µM | K562 > 100 µM | SN12C > 100 µM | TK-10 > 100 µM | HCC 2998 > 100 µM | NCI-H23 > 100 µM | OVCAR-3 > 100 µM | OVCAR-8 > 100 µM | SK-OV-3 > 100 µM | HCT-116 > 100 µM | OVCAR-5 > 100 µM | SNB-78 > 100 µM | HT-29 > 100 µM | DMS-114 > 100 µM | HL-60 > 100 µM | HOP-62 > 100 µM | UO-31 > 100 µM | NCI-H226 > 100 µM | RPMI-8226 > 100 µM | OVCAR-4 > 100 µM | NCI-H522 > 100 µM | A549 > 100 µM | IGROV-1 > 100 µM | U-251 > 100 µM | CAKI-1 > 100 µM | SF-295 > 100 µM | SK-MEL-5 > 100 µM | KM-20L2 > 100 µM | UACC-257 > 100 µM | 786-0 > 100 µM | SF-539 > 100 µM | SNB-19 > 100 µM | SR > 100 µM | SF-268 > 100 µM | DMS-273 > 100 µM | COLO 205 > 100 µM | UACC-62 > 100 µM | SK-MEL-2 > 100 µM | SNB-75 > 100 µM | EKVX > 100 µM | M14 > 100 µM | KM12 > 100 µM | A498 > 100 µM | SW-620 > 100 µM | MOLT-4 > 100 µM | M19-MEL > 100 µM | NCI-H460 > 100 µM | ACHN > 100 µM | SK-MEL-28 > 100 µM | LXFL 529 > 100 µM
> 100 µM: HCT-15

CCOc1ccc2nc(NC(=O)C(=O)C(C(=O)c3ccccc3-c3ccccc3)C3OC(=O)c4ccccc43)sc2c1 (stereo not given)
inactive: LOX IMVI 17.5 µM | DLD-1 29.6 µM | XF498 21.3 µM | K562 22.3 µM | SN12C 11.7 µM | TK-10 16.5 µM | CCRF-CEM 21.1 µM | PC-3 18.2 µM | HCC 2998 18.5 µM | NCI-H23 17.9 µM | OVCAR-3 18.7 µM | OVCAR-8 8.22 µM | SK-OV-3 25.9 µM | HCT-116 18.4 µM | Malme-3M 13.8 µM | OVCAR-5 44.3 µM | Hs-578T 34.8 µM | SNB-78 18.6 µM | HT-29 19.4 µM | DMS-114 14.8 µM | HL-60 22.8 µM | HOP-62 25.5 µM | NCI/ADR-RES 12.1 µM | UO-31 22.4 µM | NCI-H226 5.31 µM | RPMI-8226 12.2 µM | OVCAR-4 35.2 µM | NCI-H522 16.7 µM | A549 26.4 µM | IGROV-1 26.7 µM | U-251 15 µM | CAKI-1 23.2 µM | MCF7 21.2 µM | DU-145 21.9 µM | SF-295 21.6 µM | SK-MEL-5 16.2 µM | KM-20L2 22.4 µM | UACC-257 22.4 µM | 786-0 16.5 µM | SF-539 8.32 µM | MDA-N 19.6 µM | T47D 13.9 µM | SNB-19 14 µM | SR 9.79 µM | SF-268 19.8 µM | DMS-273 23.1 µM | COLO 205 19.4 µM | HOP-92 17.5 µM | UACC-62 16.4 µM | SK-MEL-2 17.8 µM | BT-549 16.7 µM | SNB-75 21.3 µM | RXF 393 13.4 µM | EKVX 19.8 µM | M14 27.6 µM | KM12 8.93 µM | A498 22.1 µM | SW-620 26.6 µM | MOLT-4 13.2 µM | MDA-MB-435 25.4 µM | M19-MEL 19.1 µM | NCI-H460 19.5 µM | ACHN 30.2 µM | MDA-MB-231 25.9 µM | SK-MEL-28 20.2 µM | LXFL 529 17.4 µM
22.4 µM: HCT-15
